# Measured values published in ChEMBL document CHEMBL2094269, “WEHI/Eskitis Trypanosoma b. brucei screening data”.
# System: Trypanosoma brucei brucei
# Test: microbe, parasite or virus in culture
# Format: functional, organism-based, STIB 795
# Conditions: Trypanosoma brucei, STIB 795
# Description: DNDI: Inhibition of Human African Trypanosomiasis (HAT), STIB 795, in vitro
row,SMILES,IC50
1,O=C(NCC1CCCO1)c1cnc2sc3c(n2c1=O)CCC3 (stereo not drawn),> 10.4 µM
2,Cc1ccsc1C=NN1CCN(c2ccc(Cl)cc2)CC1,> 10.4 µM
3,Cc1ccc(N2CCN(c3ccc4nnc(C)n4n3)CC2)c(C)c1,> 10.4 µM
4,CCCCN(CCCC)CCNC(=O)Nc1ccc(Cl)cc1,> 10.4 µM
5,Cc1c(-c2cc(Cl)cc3c2OC(C)(C)C3=O)ccc(N)c1C#N,> 10.4 µM
6,CCCCCOc1ccc(NC(=N)Nc2nc(C)cc(C)n2)cc1,> 10.4 µM
7,COc1ccc(-c2nc3c(=O)n(C)c(=O)nc-3n(C)n2)cc1OC,> 10.4 µM
8,Fc1cccc(Cl)c1COc1ccc(/C=N/n2cnnc2)cc1,> 10.4 µM
9,Clc1ncnc2c1C(c1ccccc1)c1c(Cl)ncnc1O2,> 10.4 µM
10,CCCNc1nc(NC2CCCCC2)nc(NC2CCCCC2)n1,> 10.4 µM
11,Cc1ccc(Nc2nc3nonc3nc2NC(C)(C)C)cc1Cl,> 10.4 µM
12,COC(=O)c1cccc(Nc2nc(N)c(C(=O)CC(C)C)s2)c1,> 10.4 µM
13,CC(=O)Nc1cccc2c1C(=O)C(Cl)=C(N1CCOCC1)C2=O,> 10.4 µM
14,CC1=C/C(=N\OC(=O)c2ccccc2Br)CC(C)(C)C1,> 10.4 µM
15,Cc1c(-c2cc(F)cc3c2CC(C)(C)O3)ccc2nc(N)nc(N)c12,> 10.4 µM
16,CC1C(=O)Nc2ccc(S(=O)(=O)N3CCOCC3)cc2NC1=O (stereo not drawn),> 10.4 µM
17,CCCc1ccc(C(OCCN(C)C)c2ccc(CCC)cc2)cc1,> 10.4 µM
18,CON(C)C(=O)Nc1ccc(Cl)c(CN2OCC(C)(C)C2=O)c1,> 10.4 µM
19,CCS(=O)(=O)c1cccc(-c2ccc3nc(N)nc(N)c3c2C)c1,> 10.4 µM
20,CCOC(=O)c1ccc(CCCCCOc2cnc(N)nc2N)cc1,> 10.4 µM
21,CC(C)(C)c1ccc(C(CN)c2ccc(Oc3ccccc3)cc2)cc1 (stereo not drawn),> 10.4 µM
22,N#C/C(=C\Nc1cc(Cl)ccc1O)c1nc2cc(Cl)ccc2o1,> 10.4 µM
23,C=CCn1c(Oc2ccccc2Cl)nc2c1c(=O)n(C)c(=O)n2C,> 10.4 µM
24,CCCCC(CC)C(=O)Nc1ccc2ccc3cccnc3c2n1 (stereo not drawn),> 10.4 µM
25,CC(Cc1ccccc1)NCCC1c2ccccc2-c2ccccc21 (stereo not drawn),> 10.4 µM
26,CN(C)CCCC1Sc2ccccc2Sc2ccccc21 (stereo not drawn),> 10.4 µM

# Now from value to compound:
row,IC50,SMILES
1,> 10.4 µM,COc1ccccc1-c1nnc(Cc2ccc(F)cc2Cl)o1
2,> 10.4 µM,CN(C)CC/C=C(\c1ccccc1)c1cccc(C(F)(F)F)c1
3,> 10.4 µM,Cc1ccc(O)c(/C=N/NC(=O)c2[nH]ncc2Br)c1
4,> 10.4 µM,Nc1cc(NC(=O)c2ccncc2)cc(Oc2ccc(F)cc2)c1
5,> 10.4 µM,NC(=S)N/N=C(/c1ccc(C(F)(F)F)cc1)c1ccccn1
6,> 10.4 µM,COCc1nc2ccccc2n1CCCCOc1cccc(C)c1
7,> 10.4 µM,O=C(/C(=C/c1cccnc1)c1nc2ccccc2[nH]1)c1ccccc1
8,> 10.4 µM,COc1ccc2c(c1)SCc1ccccc1/C2=C\CCN(C)C
9,> 10.4 µM,Oc1ccc(Br)c2ccc(/C=C/c3ccccc3)nc12
10,> 10.4 µM,C=CCc1cccc(/C=N/NC(=O)c2cc(C(C)(C)C)n[nH]2)c1O
11,> 10.4 µM,Cc1nn(C(=N)N)c(C)c1C1c2ccccc2CCc2ccccc21
12,> 10.4 µM,C/C(=N\Nc1nnc2c(n1)[nH]c1c(C)cccc12)c1ccccc1O
13,> 10.4 µM,Cc1ccc(S(=O)(=O)Nc2ccc(Cl)c3cccnc23)cc1
14,> 10.4 µM,Cc1cc(OCC(=O)NNc2ccccc2)c(C(C)C)cc1Cl
15,> 10.4 µM,CC(Nc1cccc2ccccc12)C(=O)N/N=C/c1cccc(O)c1 (stereo not drawn)
16,> 10.4 µM,Cc1cc(Br)cc(/C=N/NC(=O)c2ccncc2)c1O
17,> 10.4 µM,Cc1cc(C(=O)N/N=C/c2ccc(-c3cccc(C(=O)O)c3)o2)[nH]n1
18,> 10.4 µM,O=C1C(O)=C/C(=N/c2ccc(Cc3ccncc3)cc2)c2ccccc21
19,> 10.4 µM,OCCSc1nc2ccccc2nc1N/N=C/c1ccccc1O

row,IC50,SMILES
1,> 10.4 µM,Cc1cccc(/C(=N\c2ccc(C)c(Cl)c2)NC2CCCCC2)c1
2,> 10.4 µM,O=C(NCC1CCCO1)C(=O)N/N=C/c1c(O)ccc2ccccc12 (stereo not drawn)
3,> 10.4 µM,COCC(=O)N/N=C/c1ccc(Sc2cccc3cccnc23)o1
4,> 10.4 µM,O=C(CCSc1ccccc1)Nc1nc(-c2ccccn2)cs1
5,> 10.4 µM,CCn1c2ccccc2c2cc(/C=N/NC(=O)c3ccccn3)ccc21
6,> 10.4 µM,O=C(Cc1cccs1)Nc1ccc(C(=O)Nc2nccs2)cc1
7,> 10.4 µM,Cc1nc(SCC(=O)NC2CCCCC2)n(-c2ccccc2)c1C
8,> 10.4 µM,Cc1ccc2[nH]c3c(c2c1)CCC(/C=N/NC(=O)c1ccccc1)C3=O (stereo not drawn)
9,> 10.4 µM,Cc1ccc(NC(=O)C/C(N)=N/OC(=O)c2ccccc2Cl)cc1
10,> 10.4 µM,O=C(Nc1nccs1)c1ccc(=O)n(Cc2ccccc2Cl)c1
11,> 10.4 µM,CCOC(=O)c1ccc(NC(=O)C(=O)NN=C2CCN(C)CC2)cc1
12,> 10.4 µM,CCN(CC)C1=C(n2nnc3ccccc32)C(=O)c2ccccc2C1=O
13,> 10.4 µM,CCC(C)NC(=O)c1cccc(Nc2ccnc(-c3ccccc3)n2)c1 (stereo not drawn)
14,> 10.4 µM,CC(C)CCn1c(/C=N/Nc2nc3ccccc3[nH]2)nc2ccccc21
15,> 10.4 µM,CCOC(=O)CNC(=O)c1ccc2c(Cl)c3c(nc2c1)CCCC3
16,> 10.4 µM,NS(=O)(=O)c1ccc(N/C=C2\C(=O)Nc3ccccc32)cc1
17,> 10.4 µM,c1ccc(-c2cc(-c3ccccn3)nc(-c3ccccn3)c2)cc1
18,> 10.4 µM,c1ccc(CCCNc2ccnc3cc4ccccc4cc23)cc1
